# Data: patent US11090305B2, “Methods and compositions to reduce oxidative stress” (University of Massachusetts, priority 2009, dated 2021)
# Experiments:
# HSCs = assay: Competitive HSC transplantation, bone marrow repopulation; format: in vivo, mouse; conditions: for outcome of competitive transplant with CD45.2 WT HSCs: WT donor mice treated 2 weeks before harvest
# Protocol: HSC were purified from freshly harvested bone marrow mononuclear cells as c-Kit^+Sca-1^+CD90.1^lowLin^− by FACS sorting. Recipient mice were C57BL/6 (WT) on standard chow. Recipients underwent lethal irradiation (1100 Rads delivered in 2 doses 3 hr apart). Immediately after the 2nd irradiation, recipients were anesthetized (2% isoflurane) and 10^6 HSC/0.1 ml sterile PBS were transplanted via retro-orbital injection. Mice were followed for 12 weeks before study or administration of AOM.
# The functional consequence of this loss of quiescence by competitive transplantation was investigated next, insofar as the presence of quiescent HSC are critical for successful bone marrow reconstitution. HSCs from CD45.2 ApoE^−/− or HCD mice were mixed 1:1 with CD45.1 WT HSCs and then transplanted into lethally irradiated CD45.1 WT recipients.
# Activation of p38 MAPK reduces HSC quiescence in Atm^−/− mice. To evaluate this phenomena in hypercholesterolemic mice, ApoE^−/− and WT mice were treated with the selective p38 MAPK inhibitor SB203580 or the MEK 1 inhibitor PD98059 for 2 weeks prior to harvest of HSCs for transplant. CD45.2 ApoE^−/− or WT HSCs with mixed 1:1 with CD45.1 WT HSCs and transplanted into lethally irradiated CD45.1 recipient mice.
# [1] = test system: p19^Arf, p21^Waf1, and p27^Kip1; assay: RT-PCR expression of p19^Arf, p21^Waf1, p27^Kip1 in HSCs; format: in vivo, mouse
# Protocol: The expression of p15^Ink4b, p16^Ink4a, p18^Ink4c, p19^ARF, P21^Waf1, and p27^Kip1 was determined using RT-PCR, a more sensitive and quantitative assay, in ApoE^−/− and WT HSCs.
# Notch1 = Notch1 expression in HSCs and lymphoid progenitors (Example 5); format: in vivo, mouse
# Protocol: Cells were stained with monoclonal antibodies conjugated to various fluoroprobes. These antibodies included: Notch1, cKit (2B8), Sca-1 (E13-161.7), CD4 (L3T4), CD8 (53-6.72), CD90.1, CD25, CD44, TCRβ, NK1.1, γδTCR, CD45.1, CD45.2. The lineage cocktail consisted of CD4, CD8, B220 (RA3-6B2), TER-119, Mac-1 (MI/70), and Gr-1 (RB6-8C5). All antibodies were purchased from BD Bioscience (San Diego, Calif.). FACS analysis was carried out on a FACS Diva.
# The Notch family is an evolutionarily conserved system of receptors and ligands that play a fundamental role in regulating cell-fate decision in many types of stem and progenitor cells, including HSCs. Notch1 plays a critical role in lymphocyte differentiation, wherein expression of Notch1 favors T cell differentiation. To clarify the effects of hypercholesterolemia on the expression Notch family, the expression of Notch family was screened in HSCs isolated from WT and ApoE^−/− mice. The percentage of HSCs expressing of Notch1 was higher in hypercholesterolemic than WT mice, whereas no differences in Notch2, Notch4, or Delta-like-1 were noted among groups (FIG. 47A). FIGS. 47A-47D show notch 1 expression is greater in HSCs from hypercholesterolemic mice. […] (B) Within the HSC population, a higher percentage of long term-HSCs expressed Notch1 than did short term-HSCs. This difference was evident in both WT and ApoE^−/− mice, although the percentage of short term-HSCs expressing Notch1 was twofold higher in ApoE^−/− than WT mice. […] (D) Treatment of ApoE^−/−, but not WT mice with SB203580 reduced the percentage of HSCs expressing Notch1. m±sd, n=5, *p<0.05 vs. WT, †p<0.05 vs. ApoE or HCD, p<0.05 vs. long-term HSCs.
# wt MSC [2] = assay: Nox 4 expression and DCF staining in wt MSC after insulin treatment; format: cell-based, mouse; conditions: WT MSCs, increased concentrations
# Protocol: (§1) Adipocytes were identified by Oil Red O staining. m±sd, n=4, *p<0.05 vs control. […] Endothelial cells were identified by CD31 staining. m±sd, n=4, *p<0.05 vs control, #p<0.05 vs 5 nM.
# wt MSC [3] = assay: Response of wt MSC to adipogenic medium (Oil Red O staining); format: cell-based, mouse; conditions: WT MSCs, increased concentrations
# Protocol: as §1
# wt MSC [4] = assay: Response of wt MSC to endogenic medium (CD31 staining); format: cell-based, mouse; conditions: WT MSCs, increased concentrations
# Protocol: as §1
# wt MSC [5] = assay: Basal PPARγ, adiponectin, eNOS and p-eNOS expression in wt MSC; format: cell-based, mouse; conditions: WT MSCs, increased concentrations
# Protocol: as §1
# PAD patients = conditions: acute or short term supplementation, literature; cited from earlier work
# eNOS = eNOS expression in gastrocnemius muscle by western blotting (Example 2); format: in vivo, rat; conditions: dietary supplements from 7 days before ischemia; 14 days after induction of ischemia
# Protocol: (§2) Rats were sacrificed 14 days after induction of ischemia for measurement of gastrocnemius muscle eNOS and nitrotyrosine expression. […] Samples were homogenized in liquid nitrogen and transferred to NP-40 lysis buffer, comprised of 50 mM HEPES (pH 7.5), 150 mM NaCl, 10% glycerol, 1.5 mM MgCl2, 1 mM EDTA, 100 mM NaF, 1% NP 40, 1 mM PMSF, and […] aprotinin. The lysates were centrifuged, the supernatant recovered, and the protein concentration determined (Pierce Biotechnology, Rockford, Ill.). […] Membranes were incubated overnight at 4° C. with mouse monoclonal anti-nitrotyrosine (Cayman Chemical Co., Ann Arbor, Mich., 1:1000) or mouse monoclonal anti-eNOS (BD Transduction Laboratories, San Diego, Calif., 1:1000) and then incubated for 2 h with horseradish peroxidase-conjugated anti-mouse IgG antibody (Pierce Biotechnology, 1:5000). Immunoreactive bands were visualized using the enhanced chemiluminescence system (Amersham, Arlington Heights, Ill.). Band density was quantitated by standard densitometry and the intensity of the band of interest expressed as a function of the α-tubulin band.
# Ca^2+-dependent NOS [6] = assay: Ca^2+-dependent NOS activity in gastrocnemius muscle (Example 2); format: in vivo, rat; conditions: 14 days after induction of ischemia
# Protocol: (§3) Rats were sacrificed 14 days after induction of ischemia for determination of gastrocnemius muscle NOS activity. […] Muscles were homogenized in ice-cold buffer (250 mM Tris-HCl, pH 7.4, 10 mM EDTA, 10 mM EGTA), centrifuged, and the protein in the supernatant adjusted to 5 μg/ml. Samples were incubated in 10 mM NADPH, 1 μCi/μl ^14C-Arg, 6 mM CaCl2, 50 mM Tris.HCl (pH 7.4), 6 μM BH4, 2 uM FAD, and 2 μM FMN for 30 minutes at 37° C. The reaction was stopped with 400 μl of 50 mM Hepes, pH 5.5, 5 mM EDTA. Identical samples were prepared without CaCl2 and all reactions were performed in duplicate. The radioactivity of the sample eluate was measured and expressed as CPM/μg protein. The Ca^2+-dependent NOS activity, which corresponds to the sum of the endothelial and neural NOS isoforms, was calculated by subtracting the NOS activity measured in the absence of CaCl2) from the NOS activity measured in the presence of CaCl2). The Ca^2+-independent NOS activity corresponds to inflammatory isoform of NOS, or iNOS.
# [7] = test system: Ca^2+-independent NOS (iNOS); assay: Ca^2+-independent NOS activity in gastrocnemius muscle (Example 2); format: in vivo, rat; conditions: 14 days after induction of ischemia
# Protocol: as §3
# nitrotyrosine = assay: Nitrotyrosine accumulation in gastrocnemius muscle by western blotting (Example 2); format: in vivo, rat; conditions: 14 days after induction of ischemia
# Protocol: as §2
# Ca^2+-dependent NOS [8] = assay: Ca^2+-dependent NOS activity in gastrocnemius muscle, hindlimb ischemia (Example 1); format: in vivo, rat; conditions: 4 days after AdeNOS or PBS (14 days after induction of ischemia)
# Protocol: A portion of the gastrocnemius muscle harvested on day 4 after AdeNOS or saline administration (14 days after induction of ischemia) was snap frozen in liquid N2 for subsequent analysis of Ca^2+-dependent NOS activity (EMD Chemicals, Gibbstown, N.J.). 50 μg of muscle protein homogenate was incubated in 10 mM NADPH, 1 μCi/μl ^14C-arginine, 6 mM CaCl2, 50 mM Tris.HCl (pH 7.4), 6 μM BH4, 2 μM FAD, and 2 μM FMN for 30 minutes at 37° C. The reaction was stopped with 400 μl of 50 mM Hepes (pH 5.5) and 5 mM EDTA. Identical samples were prepared without CaCl2 and all reactions were performed in duplicate. The radioactivity of the sample eluate was measured in a liquid scintillation counter. Enzyme activity was expressed as […] per minute per microgram protein (CPM/min/ug). The Ca^2+-NOS activity was calculated by subtracting the NOS activity measured without calcium from the total activity measured in the presence of calcium.
# [9] = test system: ischemic hindlimb of rats; assay: Laser Doppler perfusion imaging of hindlimb blood flow (Example 1); format: in vivo, rat; conditions: days after AdeNOS or PBS administration
# Protocol: Hindlimb blood flow was determined by means of laser Doppler imaging (Moor Instruments, Ltd., Devon, United Kingdom). Flow was measured preoperatively, immediately after arterial excision, immediately before AdeNOS or saline administration, and on days 4, 7, 21, and 30 thereafter. Scans were obtained during inhalation of 1% isoflurane while core body temperature was maintained between 36.8-37.2° C. by means of a heating element driven by a rectal temperature probe. Scans were repeated three times and the average for each rat determined. Data were expressed as the ratio of ischemic:non-ischemic hindlimb.
# [10] = test system: ischemic hindlimb of rats; assay: Evaluation of muscle necrosis (NBT staining, H&E, muscle weights) (Example 1); format: in vivo, rat; conditions: 7 days after AdeNOS or PBS (17 days after induction of ischemia)
# Protocol: Muscle necrosis was determined using cut sections of tibialis anterior and gastrocnemius muscle. Muscle samples were cut transversely into 3 pieces (cuts made in 2 mm increment); two sections were stained with nitroblue tetrazolium (NBT). These sections were incubated in phosphate buffered saline (pH 7.4) containing 0.033% NBT (Fischer Biotech, Austin, Tex.) and 0.133% NADH (Roche Diagnostics, Indianapolis, Ind.) for 10 min, and then fixed in 4% paraformaldehyde for 24 hours. The areas of viable (stained) and non-viable (unstained) tissue were quantified using Image Pro software (Media Cybernetics, Bethesda, Md.) and the average taken for each rat. The third cut muscle section was used for H&E staining.
# [11] = ApoE^−/− mice, in vivo treatment
molecule,measurement,setting,value
C[S+]([O-])c1ccc(-c2nc(-c3ccncc3)c(-c3ccc(F)cc3)[nH]2)cc1 (stereo not shown) [SB203580],percentage of CD45.2^+ bone marrow mononuclear cells 12 weeks after competitive transplantation,"HSCs; ApoE^−/− donor mice treated before HSC harvest (NAC 4 weeks; SB203580, PD98059 2 weeks)",significantly improved the efficacy of ApoE^−/− HSCs in the competitive transplant paradigm
same,outcome of competitive transplant with CD45.2 WT HSCs,HSCs,Neither drug affected the outcome
same,"HSC expression of p19^Arf, p21^Waf1, and p27^Kip1",[1]; [11],"significantly reduced HSC expression of p19^Arf, p21^Waf1, and p27^Kip1"
same,"HSC expression of p19^Arf, p21^Waf1, and p27^Kip1",[1]; WT HSCs,neither drug affected expression of these proteins in WT HSCs
same,percentage of HSCs expressing Notch1,Notch1; WT mice,did not affect the WT group
same,percentage of HSCs expressing Notch1,"Notch1; hypercholesterolemic mice (ApoE^−/−, HCD), in vivo treatment",significantly reduced the percentage of ApoE^−/− HSCs expressing Notch1
insulin: insulin treatment of wt MSC,Nox 4 expression and oxidative stress,wt MSC [2],increased Nox 4 expression and oxidative stress
same,differentiation towards adipocytes,wt MSC [3],increased differentiation towards adipocytes
same,differentiation towards endothelial cells,wt MSC [4],decreased differentiation towards endothelial cells
same,PPARgamma expression,wt MSC [5],increased PPARgamma
same,p-eNOS expression,wt MSC [5],decreased p-eNOS expression
"O=C1O[C@H]([C@@H](O)CO)C(O)=C1O [vitamin C, L-ascorbic acid]",PAD symptoms,PAD patients,reduce PAD symptoms
COc1cccc(-c2cc(=O)c3ccccc3o2)c1N [PD98059],outcome of competitive transplant with CD45.2 WT HSCs,HSCs,Neither drug affected the outcome
same,"HSC expression of p19^Arf, p21^Waf1, and p27^Kip1",[1]; [11],had no effect
same,"HSC expression of p19^Arf, p21^Waf1, and p27^Kip1",[1]; WT HSCs,neither drug affected expression of these proteins in WT HSCs
L-arginine α-ketoglutarate,eNOS expression in the ischemic gastrocnemius muscle,eNOS,significantly greater than that of rats fed normal chow
same,Ca^2+-dependent NOS activity in the ischemic gastrocnemius muscle,Ca^2+-dependent NOS [6],greater than that of rats fed normal chow
same,Ca^2+-independent NOS activity in the ischemic gastrocnemius muscle,[7],statistically similar to the normal chow group
same,nitrotyrosine level in the ischemic gastrocnemius muscle,nitrotyrosine,significantly less than the level noted in rats fed normal chow
"C[C@H](O)[C@H](O)[C@H]1CNc2nc(N)[nH]c(=O)c2N1 [BH4, tetrahydrobiopterin]",Ca^2+-dependent NOS activity in gastrocnemius muscle,Ca^2+-dependent NOS [8],no effect
same,hindlimb blood flow recovery,[9],no effect
same,extent of muscle necrosis (NBT staining),[10],no effect
